The values that follow come from article PMC9573387, “The First 5′-Phosphorylated 1,2,3-Triazolyl Nucleoside Analogues with Uracil and Quinazoline-2,4-Dione Moieties: A Synthesis and Antiviral Evaluation” (Molecules, 2022).

Series [1] deals with recombinant HIV reverse transcriptases (RT). On the set-up: method as in PMID 17434736. The settings on record: cited from earlier work.
Series [2] concerns wild-type HIV RT. On the set-up: method as in PMID 17434736. The settings on record: cited from earlier work.
The test system of series [3] is A/Puerto Rico/8/34 (H1N1) influenza virus. Briefly: microbe, parasite or virus in culture. In kind it is cell-based. Particulars: for IC50: 48 h, A/Puerto Rico/8/34 (H1N1), MDCK cells, read-out: IC50 (50% inhibition of virus replication).
For series [4], the system named is MDCK (ATCC CCL-34) cells.
The nature of series [5]: in vitro. The settings on record: dog.
Series [6] concerns HIV. The settings on record: cited from earlier work.
Series [7] has as its system A/Puerto Rico/8/34 (H1N1) influenza virus. Set-up: method as in PMID 32930935. The settings on record: parent nucleoside analogues, cited from earlier work; for IC50: A/Puerto Rico/8/34 (H1N1), read-out: IC50 (50% inhibition of virus replication).
Series [8] concerns MDCK (ATCC CCL-34) cells. The settings on record: read-out: CC50 (median cytotoxic concentration); parent nucleoside analogues; cited from earlier work.

Where a name gives a salt, the structure may show the parent alone. Read-outs that look alike come from different tables or passages of the source. Where only a bound is given, the exact number is not on record here.

As for `Nc1nc(=O)n([C@H]2C[C@@H](COP(=O)(O)OP(=O)(O)OP(=O)(O)O)C2)cc1F` [5′-triphosphate of 5-fluoro-1-[cis-3-(hydroxymethyl)-cyclobutyl]-cytosine], the half-inhibitory concentration (IC50) in series [1] is 4.7 µM; in series [2], 6.9 µM.
Turning to `CC(N)C12CC3CC(CC(C3)C1)C2` (stereo not shown) [Rimantadine, reference compound], in series [3], the “SI (selectivity index, CC50/IC50 ratio)” value was 4. Moreover, the IC50 in series [3] (Influenza A virus, H1N1, MDCK) worked out at 77 ± 8 µM. Further, the CC50 in series [4] (read-out: CC50 (median cytotoxic concentration), MDCK cells, MTT, concentration causing 50% cell death) is 340 ± 16 µM.
On to `O=c1ccn(Cc2cn([C@@H]3O[C@H](COP(=O)(O)O)[C@@H](O)[C@H]3O)nn2)c(=O)[nH]1` [Compound 25a], for which the IC50 in series [3] (Influenza A virus, H1N1, MDCK) is greater than 494 µM. Besides, the CC50 in series [5] is greater than 494 µM.
With `COC(=O)[C@H](C)NP(=O)(OC[C@H]1O[C@@H](n2cc(C)c(=O)[nH]c2=O)C[C@@H]1N=[N+]=[N-])Oc1ccccc1` (stereo partly drawn) [ProTide-ZDV, 5′-(phenylmethoxy-L-alaninyl)phosphate of Zidovudine], in series [6] (ProTide versus parent), the “Better activity against HIV than the parent nucleoside analogue” value is “more than 100 times”.
On to `O=c1[nH]c(=O)n(CCCCc2cn([C@@H]3O[C@H](COP(=O)(Oc4ccccc4)Oc4ccccc4)[C@@H](O)[C@H]3O)nn2)c2ccccc12` [Compound 14b], for which the “SI (selectivity index, CC50/IC50 ratio)” value in series [3] is on record as 2. Also, the IC50 in series [3] (Influenza A virus, H1N1, MDCK) turned out to be 51 ± 4 µM. The “Increase of cytotoxicity over the parent compound” value in series [4] (CC50 versus parent compound 34b) amounted to 7 fold. In series [5], this compound had a CC50 of 98 ± 6 µM.
On to `CCC(CC)O[C@@H]1C=C(C(=O)O)C[C@H](N)[C@H]1NC(C)=O` [Oseltamivir carboxylate, reference compound], for which the “SI (selectivity index, CC50/IC50 ratio)” value in series [3] is greater than 667. Moreover, the IC50 in series [3] (Influenza A virus) was 0.3 ± 0.06 µM. This compound registered a CC50 in series [5] greater than 200 µM.
As for `CCOP(=O)(OCC)OC[C@H]1O[C@@H](n2cc(CCCCn3ccc(=O)[nH]c3=O)nn2)[C@H](O)[C@@H]1O` [Compound 12a, 1-[4-(2,4-dioxo-pyrimidine-1-yl-butyl)-1,2,3-triazol-1-yl]--D-ribofuranose-5-yl diethyl phosphate], in series [3], the “Antiviral activity against H1N1 (A/PR/8/34) influenza virus, in words” value (“Antiviral activity against H1N1” below) was “inactive” and the IC50 worked out at 250 ± 22 µM. Also, the IC50 in series [3] (Influenza A virus, H1N1, MDCK) is greater than 180 µM. In series [5], this compound had a CC50 greater than 596 µM.
Regarding `O=c1ccn(CCCCc2cn([C@@H]3O[C@H](CO[PH](=O)O)[C@@H](O)[C@H]3O)nn2)c(=O)[nH]1` [Compound 24a], in series [3], the “Antiviral activity against H1N1” value is “inactive”. Further, the IC50 in series [3] (Influenza A virus) is 218 ± 32 µM. For the same compound, the CC50 in series [5] was greater than 564 µM.
As to `Nc1nc(=O)n([C@H]2C[C@@H](CO)C2)cc1F` [5-fluoro-1-[cis-3-(hydroxymethyl)-cyclobutyl]-cytosine], the “Anti-HIV activity, inactive up to” value in series [6] (in vitro) was greater than 100 µM.
Regarding `O=c1[nH]c(=O)n(Cc2cn([C@@H]3O[C@H](COP(=O)(Oc4ccccc4)Oc4ccccc4)[C@@H](O)[C@H]3O)nn2)c2ccccc12` [Compound 13b], in series [3] (IC50 versus parent compound 33b), the “Antiviral activity exceeding that of the parent compound” value is 2 times. In series [3] (Influenza A virus, H1N1, MDCK), the IC50 came out at 17.9 ± 3 µM. In addition, the “Increase of selectivity index over the parent compound” value in series [3] (SI versus parent compound 33b) amounted to 7 times. Moreover, the CC50 in series [5] is greater than 494 µM.
As for `O=c1ccn(CCCCc2cn([C@@H]3O[C@H](CO)[C@@H](O)[C@H]3O)nn2)c(=O)[nH]1` [Compound 34a], in series [7], the IC50 was greater than 180 µM and the “Antiviral activity against H1N1” value was “inactive”. In series [8], the CC50 was greater than 817 µM.
`O=c1[nH]c(=O)n(CCCCc2cn([C@@H]3O[C@H](COP(=O)(O)O)[C@@H](O)[C@H]3O)nn2)c2ccccc12` [Compound 26b]: in series [3] (Influenza A virus), the IC50 was greater than 430 µM. The same compound yielded a CC50 in series [5] greater than 430 µM.
With `O=c1[nH]c(=O)n(CCCCc2cn([C@@H]3O[C@H](CO)[C@@H](O)[C@H]3O)nn2)c2ccccc12` [Compound 34b], the half-maximal inhibitory concentration (IC50) in series [7] is 30 ± 4 µM. The CC50 in series [8] is greater than 719 µM.
Consider `O=c1[nH]c(=O)n(Cc2cn([C@@H]3O[C@H](CO)[C@@H](O)[C@H]3O)nn2)c2ccccc12` [Compound 33b], for which, in series [3], the “SI (selectivity index, CC50/IC50 ratio)” value turned out to be 3. Also, the IC50 in series [7] is 42 ± 5 µM.
As to `O=c1ccn(Cc2cn([C@@H]3O[C@H](COP(=O)(Oc4ccccc4)Oc4ccccc4)[C@@H](O)[C@H]3O)nn2)c(=O)[nH]1` [Compound 13a], the IC50 in series [3] (Influenza A virus, H1N1, MDCK) was found to be 121 ± 7 µM. This compound had a CC50 in series [5] greater than 538 µM.
With `O=c1ccn(CCCCc2cn([C@@H]3O[C@H](COP(=O)(O)O)[C@@H](O)[C@H]3O)nn2)c(=O)[nH]1` [Compound 26a], in series [3], the “Antiviral activity against H1N1” value is “inactive”. Further, in series [3] (Influenza A virus), the IC50 amounted to 195 ± 26 µM. In series [5], this compound yielded a CC50 greater than 463 µM.
On to `COC(=O)[C@H](C)NP(=O)(OC[C@H]1O[C@@H](n2cc(Cn3ccc(=O)[nH]c3=O)nn2)[C@H](O)[C@@H]1O)Oc1ccccc1` (stereo partly shown) [Compound 17a], for which the IC50 in series [3] (Influenza A virus, H1N1, MDCK) was determined as 25 ± 4 µM. This compound also returned a CC50 in series [5] greater than 530 µM.
As for `O=c1ccn(CCCCc2cn([C@@H]3O[C@H](COP(=O)(Oc4ccccc4)Oc4ccccc4)[C@@H](O)[C@H]3O)nn2)c(=O)[nH]1` [Compound 14a], in series [3], the “Antiviral activity against H1N1” value is “inactive”. In addition, the 50% inhibitory concentration (IC50) is 183 ± 15 µM in series [3] and greater than 180 µM in series [3] (Influenza A virus, H1N1, MDCK). In series [5], this compound registered a CC50 greater than 500 µM.
For the compound `COC(=O)[C@H](C)NP(=O)(OC[C@H]1O[C@@H](n2cc(Cn3c(=O)[nH]c(=O)c4ccccc43)nn2)[C@H](O)[C@@H]1O)Oc1ccccc1` (stereo partly shown) [Compound 17b], the IC50 in series [3] (Influenza A virus, H1N1, MDCK) was greater than 487 µM. The CC50 in series [5] is greater than 487 µM.
In the case of `COC(=O)[C@H](C)NP(=O)(OC[C@H]1O[C@@H](n2cc(CCCCn3ccc(=O)[nH]c3=O)nn2)[C@H](O)[C@@H]1O)Oc1ccccc1` (stereo partly shown) [Compound 18a], in series [3], the “Antiviral activity against H1N1” value is “inactive”. Further, the CC50 in series [5] was greater than 463 µM.
As for `CCOP(=O)(OCC)OC[C@H]1O[C@@H](n2cc(CCCCn3c(=O)[nH]c(=O)c4ccccc43)nn2)[C@H](O)[C@@H]1O` [Compound 12b], the IC50 in series [3] (Influenza A virus, H1N1, MDCK) was greater than 542 µM. In addition, the CC50 in series [5] was greater than 542 µM.
Regarding `NC(=O)c1ncn([C@@H]2O[C@H](CO)[C@@H](O)[C@H]2O)n1` [Ribavirin, reference compound], the “SI (selectivity index, CC50/IC50 ratio)” value in series [3] was 3. In addition, the IC50 in series [3] (Influenza A virus) was determined as 31 ± 9 µM. Moreover, in series [4] (dog), the CC50 is 94 ± 48 µM.
As to `O=c1ccn(Cc2cn([C@@H]3O[C@H](CO)[C@@H](O)[C@H]3O)nn2)c(=O)[nH]1` [Compound 33a], in series [7], the half-maximal inhibitory concentration (IC50) is greater than 880 µM and the “Antiviral activity against H1N1” value was “completely inactive”. The CC50 in series [8] was greater than 880 µM.
On to `O=c1ccn(Cc2cn([C@@H]3O[C@H](CO[PH](=O)O)[C@@H](O)[C@H]3O)nn2)c(=O)[nH]1` [Compound 23a, 1-[4-(2,4-dioxo-pyrimidine-1-yl-methyl)-1,2,3-triazol-1-yl]--D-ribofuranose-5-yl H-phosphonate triethylammonium salt], for which the half-inhibitory concentration (IC50) in series [3] (Influenza A virus) is 204 ± 28 µM. The compound also returned a CC50 in series [5] greater than 612 µM.
As for `CCOP(=O)(OCC)OC[C@H]1O[C@@H](n2cc(Cn3c(=O)[nH]c(=O)c4ccccc43)nn2)[C@H](O)[C@@H]1O` [Compound 11b], the IC50 in series [3] (Influenza A virus, H1N1, MDCK) came to 411 ± 51 µM. For the same compound, the CC50 in series [5] was greater than 587 µM.
As to `O=c1[nH]c(=O)n(CCCCc2cn([C@@H]3O[C@H](CO[PH](=O)O)[C@@H](O)[C@H]3O)nn2)c2ccccc12` [Compound 24b], the IC50 in series [3] (Influenza A virus, H1N1, MDCK) is greater than 516 µM. In series [5], this compound gave a CC50 greater than 516 µM.
For the compound `O=c1[nH]c(=O)n(Cc2cn([C@@H]3O[C@H](COP(=O)(O)O)[C@@H](O)[C@H]3O)nn2)c2ccccc12` [Compound 25b], in series [3] (Influenza A virus), the IC50 was determined as 159 ± 19 µM. The compound also registered a CC50 in series [5] greater than 458 µM.
Consider `COC(=O)[C@H](C)NP(=O)(OC[C@H]1O[C@@H](n2cc(CCCCn3c(=O)[nH]c(=O)c4ccccc43)nn2)[C@H](O)[C@@H]1O)Oc1ccccc1` (stereo partly shown) [Compound 18b], for which, in series [3] (Influenza A virus, H1N1, MDCK), the IC50 was greater than 456 µM. In series [5], the CC50 is greater than 456 µM.
In the case of `CCOP(=O)(OCC)OC[C@H]1O[C@@H](n2cc(Cn3ccc(=O)[nH]c3=O)nn2)[C@H](O)[C@@H]1O` [Compound 11a], the concentration for half-maximal inhibition (IC50) in series [3] (Influenza A virus, H1N1, MDCK) was determined as 434 ± 39 µM. Also, the CC50 in series [5] is greater than 650 µM.
Take `O=c1[nH]c(=O)n(Cc2cn([C@@H]3O[C@H](CO[PH](=O)O)[C@@H](O)[C@H]3O)nn2)c2ccccc12` [Compound 23b]: in series [3] (Influenza A virus), the IC50 came to 176 ± 21 µM. Moreover, the CC50 in series [5] is greater than 555 µM.
